What was measured:
[1] = Toxicity: LD50 in mice, intraperitoneal route (Log-Probits method of Miller and Tainter); settings: mouse, in vivo, IP
Procedure: The LD50 of the products was measured in mice by the intraperitoneal route in accordance with the "Log-Probits" method of Miller and Tainter (Proc. Soc. Exptl. Biol. Med. 1944; 57, 261-264).

[2] = system: blepharospasm caused by reserpine; test: Antagonism to reserpine (blepharospasm); assay type: in vivo; set-up: key: The inhibition of blepharospasm is marked from 0 to +++; ±: The inhibition of blepharospasm is marked from 0 to +++; The inhibition of blepharospasm is marked from 0 to +++; The inhibition of blepharospasm is marked from 0 to +++; settings: male Swiss mice, before reserpine 5 mg/kg IP
Procedure: (Chen G., and Bohner B., (1961) J. pharmacol. Exptl. Therap. 131, 179).
Reserpine administered to mice in a dosage of 5 mg/kg intraperitoneally produces in the first few hours a more or less complete closure of the eyelids in most of the animals. The administration of certain products inhibits the blepharospasm caused by reserpine.
Male Swiss mice are distributed into batches of 10 mice and each experiment involves at least 3 batches:
a control batch that receives only the solvent and reserpine
a batch treated with a reference product: we selected Imipramine
a treated batch receiving the product being tested.
The experimental products are administered intraperitoneally either 30 minutes or 2 hours before the intraperitoneal injection of reserpine at a dosage of 5 mg/kg, in order to study their activity as a function of time.
The degree of ptosis for each eye and each animal is observed every 30 minutes for 4 to 5 hours, using RUBIN's score method. The activity of the product is determined by comparison with the result obtained with the treated control batch. The inhibition of blepharospasm is marked from 0 to +++.

[3] = system: narcosis produced by hexobarbital; test: Modification of narcosis produced by hexobarbital; assay type: in vivo; settings: Mus musculus, 0.5 h, mice, half an hour before hexobarbital 70 mg/kg, read-out: Narcosis potentialisation T (percentage increase in sleeping time induced by hexobarbital); for change in vivo at 100 mg/kg: 100 mg/kg IP; for change in vivo at 200 mg/kg: 200 mg/kg IP
Procedure: Mice, each weighing about 20 g, received the product under investigation by the intraperitoneal route. Half an hour later sodium hexobarbital was injected by the same route at a dosage of 70 mg/kg.
The animals were placed on a hot plate kept at a constant temperature of 27° C. It is considered that sleep is established when a mouse, placed in the dorsal decubitus, is incapable of turning over and standing on its paws.
The narcosis potentialisation is evaluated by the percentage increase in sleeping time induced by hexobarbital (T).

[4] = system: attack caused by pentetrazol; test: Anti-convulsant action: attack caused by pentetrazol; assay type: in vivo; settings: mice, 30 min before pentetrazol 125 mg/kg IP
Procedure: A convulsive attack is caused by pentetrazol which, when injected into mice intraperitoneally at a dosage of 125 mg/kg, produces 100% mortality in 5 to 7 minutes.
Mice, each weighing about 20 g, are given the product being studied intraperitoneally, thirty minutes before the administration of pentetrazol.

[5] = system: epileptic attack by electric shock; test: Anti-convulsant action: electric shock; assay type: in vivo; settings: Rattus norvegicus, 0.5 h, male rats, 30 min before 30 volts for 0.5 second, read-out: Electric shock: percentage protection (P); for responders at 100 mg/kg: 100 mg/kg IP; for responders at 200 mg/kg: 200 mg/kg IP
Procedure: The application of an electric current of 30 volts for 0.5 second to the cerebral hemispheres produces an epileptic attack.
Male rats each weighing 180 to 200 g receive intraperitoneally the solvent or the product being investigated. Thirty minutes later the animals are subjected to electric shocks. It is noted whether the attack is complete or incomplete, and the percentage protection (P) conferred by the product administered is determined.

[6] = system: central nervous system; test: Activity on the central nervous system (overall conclusion of the pharmacological tests); assay type: in vivo; settings: conclusion in words
Description: This was investigated by observing the behaviour of animals, by studying the modifications in narcosis produced by hexobarbital and studying the anti-convulsant power.

[7] = Remarks on the hydrochloride (Table I); assay type: physicochemical; settings: hydrochloride column of Table I
[8] = Mus musculus, 0.5 h, 200 mg/kg IP, read-out: Pentrazole: percentage protection (P)

For `CC(C)=CCCC(O)C=Cc1ccc2c(c1)OCO2` (centres unmarked) [compound 999], the LD50 [1] was 1000 mg/kg, the “Inhibition of blepharospasm caused by reserpine” value (“Inhibition” for short) ([2]; 50 mg/kg IP) was 0 and the change in vivo at 100 mg/kg [3] was 201%. The responders at 100 mg/kg ([4]; Mus musculus, 0.5 h, 100 mg/kg IP, read-out: Pentrazole: percentage protection (P)) was 0%, the “Pentrazole: time of death as multiple of that (t) of the control group” value (“Pentrazole: time of death” for short) ([4]; 100 mg/kg IP) was 5 t × and the responders at 100 mg/kg [5] was 90%.
With `CC(C(=O)C=Cc1ccc2c(c1)OCO2)N1CCOCC1` (centres unmarked) [compound 1321] the LD50 [1] was 850 mg/kg, the “Inhibition” value ([2]; 85 mg/kg IP) was 0 and the change in vivo at 85 mg/kg ([3]; 85 mg/kg IP) was 227%. The responders at 85 mg/kg ([4]; Mus musculus, 0.5 h, 85 mg/kg IP, read-out: Pentrazole: percentage protection (P)) was 20% and the responders at 85 mg/kg ([5]; 85 mg/kg IP) was 50%.
In the case of `O=C(C=Cc1ccc2c(c1)OCO2)CN1CCOCC1` [compound 996], the LD50 [1] is reported as 750 mg/kg, the “Inhibition” value ([2]; 75 mg/kg IP) is reported as “+” and the change in vivo at 75 mg/kg ([3]; 75 mg/kg IP) is reported as 106%. For the same compound, the responders at 75 mg/kg ([4]; Mus musculus, 0.5 h, 75 mg/kg IP, read-out: Pentrazole: percentage protection (P)) was 0%, the responders at 75 mg/kg ([5]; 75 mg/kg IP) was 50% and the Usefulness as anti-depressants [6] was “particularly useful as anti-depressants”.
For `CC(CN1CCN(C)CC1)C(=O)C=Cc1ccc2c(c1)OCO2` (centres unmarked) [compound 1201], the LD50 [1] was 75 mg/kg, the “Inhibition” value ([2]; 7.5 mg/kg IP) was “±” and the change in vivo at 7.5 mg/kg ([3]; 7.5 mg/kg IP) was 17%. The responders at 7.5 mg/kg ([4]; Mus musculus, 0.5 h, 7.5 mg/kg IP, read-out: Pentrazole: percentage protection (P)) was 0%, the “Pentrazole: time of death” value ([4]; 7.5 mg/kg IP) was 2 t × and the responders at 7.5 mg/kg ([5]; 7.5 mg/kg IP) was 10%.
In the case of `CC(CN1CCOCC1)C(O)C=Cc1ccc2c(c1)OCO2` (centres unmarked) [compound 1156], the LD50 [1] is reported as 600 mg/kg, the “Inhibition” value ([2]; 60 mg/kg IP) is reported as 0 and the change in vivo at 60 mg/kg ([3]; 60 mg/kg IP) is reported as 79%. The responders at 60 mg/kg ([4]; Mus musculus, 0.5 h, 60 mg/kg IP, read-out: Pentrazole: percentage protection (P)) was 10%, the “Pentrazole: time of death” value ([4]; 60 mg/kg IP) was 1.6 t × and the responders at 60 mg/kg ([5]; 60 mg/kg IP) was 50%.
In the case of `CC(C)=CCCC(=O)C=Cc1ccc2c(c1)OCO2` [compound 998], the LD50 [1] is reported as 2000 mg/kg, the “Inhibition” value ([2]; 200 mg/kg IP) is reported as 0 and the change in vivo at 200 mg/kg [3] is reported as 490%. It also gave a responders at 200 mg/kg [4, 8] of 0% and a responders at 200 mg/kg [5] of 30%.
In the case of `CC(CN1CCN(C)CC1)C(O)C=Cc1ccc2c(c1)OCO2` (centres unmarked) [compound 1202], the LD50 [1] is reported as 250 mg/kg, the “Inhibition” value ([2]; 25 mg/kg IP) is reported as 0 and the change in vivo at 25 mg/kg ([3]; 25 mg/kg IP) is reported as 5%. The responders at 25 mg/kg ([4]; Mus musculus, 0.5 h, 25 mg/kg IP, read-out: Pentrazole: percentage protection (P)) was 10%, the “Pentrazole: time of death” value ([4]; 25 mg/kg IP) was 2 t × and the responders at 25 mg/kg ([5]; 25 mg/kg IP) was 10%.
Compound `OC(C=Cc1ccc2c(c1)OCO2)C1CCCCC1` (centres unmarked) [compound 1037] has an LD50 [1] of 1000 mg/kg, a change in vivo at 100 mg/kg [3] of 225% and a responders at 100 mg/kg [5] of 0%.
For `CC(C)=CC(=O)C=Cc1ccc2c(c1)OCO2` [compound 1003], the LD50 [1] was 2000 mg/kg, the “Inhibition” value ([2]; 200 mg/kg IP) was 0 and the change in vivo at 200 mg/kg [3] was 223%. For the same compound, the responders at 200 mg/kg [4, 8] was 0%, the “Pentrazole: time of death” value ([4]; 200 mg/kg IP) was 15 t × and the responders at 200 mg/kg [5] was 0%.
For `OC(C=Cc1ccc2c(c1)OCO2)CN1CCOCC1` (centres unmarked) [compound 997], the LD50 [1] was 500 mg/kg, the “Inhibition” value ([2]; 50 mg/kg IP) was “+++” and the change in vivo at 50 mg/kg ([3]; 50 mg/kg IP) was 0%. The responders at 50 mg/kg ([4]; Mus musculus, 0.5 h, 50 mg/kg IP, read-out: Pentrazole: percentage protection (P)) was 0%, the “Pentrazole: time of death” value ([4]; 50 mg/kg IP) was 2 t × and the responders at 50 mg/kg ([5]; 50 mg/kg IP) was 60%. For the same compound, the Usefulness as anti-depressants [6] was “particularly useful as anti-depressants”.
`O=C(C=Cc1ccc2c(c1)OCO2)C1CCCCC1` [compound 1036] showed an LD50 [1] of 2000 mg/kg, a change in vivo at 200 mg/kg [3] of 135% and a responders at 200 mg/kg [4, 8] of 10%. For the same compound, the “Pentrazole: time of death” value ([4]; 200 mg/kg IP) was 2.6 t × and the responders at 200 mg/kg [5] was 0%.
With `OC(C=Cc1ccc2c(c1)OCO2)CCCN1CCCCC1` (centres unmarked) [AB 754] the Hygroscopicity of hydrochloride [7] was “hygroscopic”.
In the case of `CC(C(O)C=Cc1ccc2c(c1)OCO2)N1CCOCC1` (centres unmarked) [compound 1340], the LD50 [1] is reported as 400 mg/kg, the responders at 40 mg/kg ([4]; Mus musculus, 0.5 h, 40 mg/kg IP, read-out: Pentrazole: percentage protection (P)) is reported as 10% and the responders at 40 mg/kg ([5]; 40 mg/kg IP) is reported as 10%.

Reference: patent US4209517A, “α-Ethylenic alcohols and ketones, their preparation, and their use as medicaments” (Unicler, priority 1978, dated 1980)
